Results taken from patent US20230219965A1 (KSQ Therapeutics, Inc., priority 2020, published 2023).

biological target: USP1/UAF1 enzyme (Homo sapiens, UniProt O94782); assay: USP1/UAF1 deubiquitination assay (ubiquitin-rhodamine 110 substrate); format: biochemical; settings: read-out: USP1 IC50 (Ub-Rho)
Procedure: Certain Compounds of the Disclosure were assessed for USP1/UAF1 activity in a Ubiquitin Rhodamine assay modified from those described previously.
Deubiquitinase activity was measured using ubiquitin-rhodamine 110 as a substrate. Cleavage of the amide bond between rhodamine and the c-terminal glycine of ubiquitin yields an increase in fluorescence signal. The assay was conducted in 20 μl total volume of assay buffer (50 mM Tris-HCl, pH 7.8, 0.5 mM EDTA, 0.01% Bovine Serum Albumin, 1 mM DTT, 0.01% Tween-20), and 0.05 nM USP1/UAF1 enzyme. Reaction was initiated by addition of 150 nM Ubiquitin-rhodamine (Boston Biochem) substrate.
Compounds of the Disclosure, dissolved in DMSO were tested in dose response format, beginning at […].
The example compounds listed below were added to enzyme/assay buffer mix and incubated 10 min. Substrate mix was added, and reaction mix was read in kinetic mode for 30 min at Ex480/Em540 and IC50 response curves were plotted.
Data for all assay formats was calculated as percent inhibition compared with control wells. Percent inhibition was calculated using the following equation: % inhibition=100×[1−(X−min)/(max−min)], where X is the raw data readout, min is the average of the no enzyme control wells (n=32), max is the average of the DMSO control well (n=32). IC50 values were calculated using the standard four parameter curve fitting algorithm in either Prism GraphPad (La Jolla, Calif.) software, or Collaborative Drug Discovery (Burlingame, Calif.) CDD Vault. See Chem. Biol. 20(1): 55-62 (Jan. 24, 2013); Bioorg. Med. Chem. Lett. 23(20): 5660-5666 (Oct. 15, 2013).

Chain of USP1/UAF1 enzyme (O94782 whole entry): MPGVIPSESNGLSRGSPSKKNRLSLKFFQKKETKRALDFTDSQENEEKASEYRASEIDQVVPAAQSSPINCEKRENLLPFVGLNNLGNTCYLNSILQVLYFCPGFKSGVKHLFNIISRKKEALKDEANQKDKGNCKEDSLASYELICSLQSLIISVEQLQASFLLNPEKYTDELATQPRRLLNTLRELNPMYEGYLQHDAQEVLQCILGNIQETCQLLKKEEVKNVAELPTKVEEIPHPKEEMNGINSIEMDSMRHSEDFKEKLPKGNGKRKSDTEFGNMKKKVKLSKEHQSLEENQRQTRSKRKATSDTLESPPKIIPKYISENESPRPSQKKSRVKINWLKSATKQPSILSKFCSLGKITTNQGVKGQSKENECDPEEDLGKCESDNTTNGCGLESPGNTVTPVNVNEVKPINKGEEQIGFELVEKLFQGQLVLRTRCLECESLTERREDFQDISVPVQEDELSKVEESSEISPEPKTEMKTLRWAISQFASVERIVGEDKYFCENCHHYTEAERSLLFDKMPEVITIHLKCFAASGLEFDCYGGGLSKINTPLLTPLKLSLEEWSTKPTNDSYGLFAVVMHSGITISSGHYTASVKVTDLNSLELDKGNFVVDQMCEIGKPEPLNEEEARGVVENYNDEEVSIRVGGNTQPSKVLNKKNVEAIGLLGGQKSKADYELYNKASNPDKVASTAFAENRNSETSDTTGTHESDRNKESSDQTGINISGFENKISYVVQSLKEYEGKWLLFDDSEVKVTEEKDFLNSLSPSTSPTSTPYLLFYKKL
Chain of USP1/UAF1 enzyme (Q8TAF3 whole entry partner): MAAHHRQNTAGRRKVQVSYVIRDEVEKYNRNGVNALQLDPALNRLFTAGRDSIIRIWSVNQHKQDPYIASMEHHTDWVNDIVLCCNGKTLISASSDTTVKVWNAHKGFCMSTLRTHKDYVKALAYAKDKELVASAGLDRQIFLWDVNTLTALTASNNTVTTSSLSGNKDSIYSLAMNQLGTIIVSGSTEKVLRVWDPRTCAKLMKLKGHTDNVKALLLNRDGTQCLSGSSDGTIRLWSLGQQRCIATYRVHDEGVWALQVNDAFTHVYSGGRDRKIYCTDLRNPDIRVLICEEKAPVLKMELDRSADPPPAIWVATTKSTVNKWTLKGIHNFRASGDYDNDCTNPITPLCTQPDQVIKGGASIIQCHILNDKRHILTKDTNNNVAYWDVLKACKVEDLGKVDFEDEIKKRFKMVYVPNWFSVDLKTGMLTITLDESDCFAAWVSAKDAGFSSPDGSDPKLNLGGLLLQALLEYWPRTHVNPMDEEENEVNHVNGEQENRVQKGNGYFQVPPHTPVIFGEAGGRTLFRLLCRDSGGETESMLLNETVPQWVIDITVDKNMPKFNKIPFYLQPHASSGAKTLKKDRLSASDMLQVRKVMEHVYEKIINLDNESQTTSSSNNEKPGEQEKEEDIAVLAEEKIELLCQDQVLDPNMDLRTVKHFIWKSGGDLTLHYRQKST

Row | IC50 [nM] | SMILES
1 | 100 to 500 | COc1cccnc1-c1ccc(N[C@H]2CCCn3nc(-c4c(OC)ncnc4C4CC4)cc32)cc1F (single isomer, unassigned) [Example 252]
2 | 100 to 500 | COc1cccnc1-c1ccc(N[C@H]2CCCn3nc(-c4c(OC)ncnc4C4CC4)cc32)cc1Cl (single isomer, unassigned) [Example 254]
3 | > 500 | CCn1nc(-c2ccc(CN3C(=O)CCn4nc(-c5c(C)cnn5C(C)C)cc43)cc2)nc1C(F)(F)F [Example 15, 4-(4-(1-ethyl-5-(trifluoromethyl)-1H-1,2,4-triazol-3-yl)benzyl)-2-(1-isopropyl-4-methyl-1H-pyrazol-5-yl)-6,7-dihydropyrazolo[1,5-a]pyrimidin-5(4H)-one]
4 | < 100 | CCn1ncc(Cl)c1-c1cc2n(n1)CCC(=O)N2Cc1ccc(-c2nc(C(F)(F)F)cn2C)c(F)c1 [Example 17, 2-(4-chloro-1-ethyl-1H-pyrazol-5-yl)-4-(3-fluoro-4-(1-methyl-4-(trifluoromethyl)-1H-imidazol-2-yl)benzyl)-6,7-dihydropyrazolo[1,5-a]pyrimidin-5(4H)-one]
5 | 100 to 500 | CC(C)n1ncc(F)c1-c1cc2n(n1)CCC(=O)N2Cc1ccc(-c2nc(C(F)(F)F)cn2C)c(F)c1 [Example 21, 2-(4-fluoro-1-isopropyl-1H-pyrazol-5-yl)-4-(3-fluoro-4-(1-methyl-4-(trifluoromethyl)-1H-imidazol-2-yl)benzyl)-6,7-dihydropyrazolo[1,5-a]pyrimidin-5(4H)-one]
6 | > 500 | CCn1cc(C(F)(F)F)nc1-c1ccc(CN2C(=O)CCn3nc(-c4c(OC)cnn4C(C)C)nc32)cc1 [Example 45]
7 | 100 to 500 | CC(C)n1ncc(Cl)c1-c1cc2n(n1)CCC(=O)N2Cc1ccc(-c2nc(C(F)(F)F)cn2C)nc1 [Example 82]
8 | > 500 | COc1ncnc(C2CC2)c1-c1cc2n(n1)CCC(=O)N2Cc1ccc(-c2nc(C(F)(F)F)cn2C)nc1 [Example 83]
9 | 100 to 500 | CCn1nc(C(F)(F)F)nc1-c1ccc(CN2C(=O)CCn3nc(-c4c(Cl)cnn4C(C)C)cc32)cc1 [Example 84]
10 | 100 to 500 | CCn1cc(C(F)(F)F)nc1-c1ccc(CN2C(=O)CCn3nc(-c4c(F)cnn4C(C)C)cc32)cc1 [Example 85]
11 | 100 to 500 | COc1ncnc(C2CC2)c1-c1cc2n(n1)CCC(=O)N2Cc1ccc(-n2nc(C)cc2C(F)(F)F)c(F)c1 [Example 88]
12 | 100 to 500 | COc1ncnc(C2CC2)c1-c1cc2n(n1)CCC(=O)N2Cc1ccc(-n2nc(C(F)(F)F)cc2OC)nc1 [Example 94]
13 | 100 to 500 | CC(C)n1ncc(Cl)c1-c1cc2n(n1)CCC(=O)N2Cc1ccc(-c2ccn(C)n2)cc1 [Example 95]
14 | 100 to 500 | CC(C)n1ncc(Cl)c1-c1cc2n(n1)CCC(=O)N2Cc1ccc(-c2nc(C(F)(F)F)nn2C)cc1 [Example 102]
15 | 100 to 500 | COc1ccnn1-c1ccc(CN2C(=O)CCn3nc(-c4c(Cl)cnn4C(C)C)cc32)cc1 [Example 117]
16 | 100 to 500 | CCn1cc(C(F)(F)F)nc1-c1ccc(CN2C(=O)CCn3nc(-c4c(OC)ncnc4C4CC4)cc32)nc1 [Example 137]
17 | 100 to 500 | CCn1cc(C(F)(F)F)nc1-c1ccc(CN2C(=O)CCn3nc(-c4c(OC)cnn4C(C)C)cc32)cc1 [Example 155]
18 | > 500 | CCn1cc(C#N)nc1-c1ccc([C@H](C)N2C(=O)CCn3nc(-c4c(OC)ncnc4C4CC4)nc32)cc1 [Example 198]

Further lines, the compound ahead of its results:

Row | SMILES | IC50 [nM]
19 | COc1cccnc1-c1ccc(N[C@@H]2CCCn3nc(-c4c(OC)ncnc4C4CC4)cc32)cc1F (single isomer, unassigned) [Example 251] | > 500
20 | COc1cccnc1-c1ccc(N[C@@H]2CCCn3nc(-c4c(OC)ncnc4C4CC4)cc32)cc1Cl (single isomer, unassigned) [Example 253] | 100 to 500
21 | COc1ncnc(C2CC2)c1-c1cc2n(n1)CCC(=O)N2C(C)c1ccc(-c2nc(C(F)(F)F)cn2C)cc1 (stereo not drawn) [Example 3, 2-(4-cyclopropyl-6-methoxypyrimidin-5-yl)-4-(1-(4-(1-methyl-4-(trifluoromethyl)-1H-imidazol-2-yl)phenyl)ethyl)-6,7-dihy dropyrazolo[1,5-a]pyrimidin-5(4H)-one] | 100 to 500
22 | CCn1cc(C(F)(F)F)nc1-c1ccc(CN2C(=O)CCn3nc(-c4c(OC)ncnc4OC)cc32)cc1 [Example 5, 2-(4,6-dimethoxypyrimidin-5-yl)-4-(4-(1-ethyl-4-(trifluoromethyl)-1H-imidazol-2-yl)benzyl)-6,7-dihydropyrazolo[1,5-a]pyrimidin-5(4H)-one] | 100 to 500
23 | CCn1cc(C(F)(F)F)nc1-c1ccc(CN2C(=O)CCn3nc(-c4cccc5c4N(C)CC5)cc32)cc1 [Example 23, 4-(4-(1-ethyl-4-(trifluoromethyl)-1H-imidazol-2-yl)benzyl)-2-(1-methylindolin-7-yl)-6,7-dihydropyrazolo[1,5-a]pyrimidin-5(4H)-one] | 100 to 500
24 | COc1ncnc(C)c1-c1cc2n(n1)CCCN2Cc1ccc(-n2nc(C(F)(F)F)cc2C)cc1 [Example 26] | 100 to 500
25 | COc1ncnc(C2CC2)c1-c1cc2n(n1)CCC(=O)N2Cc1ccc(-c2nc(C(F)(F)F)c[nH]2)cc1 [Example 69, 2-(4-cyclopropyl-6-methoxypyrimidin-5-yl)-4-(4-(4-(trifluoromethyl)-1H-imidazol-2-yl)benzyl)-6,7-dihydropyrazolo[1,5-α]pyrimidin-5(4H)-one] | 100 to 500
26 | COc1ncnc(C2CC2)c1-c1cc2n(n1)CC(C)(C)C(=O)N2Cc1ccc(-c2nc(C(F)(F)F)cn2C)cc1 [Example 76, 2-(4-cyclopropyl-6-methoxypyrimidin-5-yl)-6,6-dimethyl-4-(4-(1-methyl-4-(trifluoromethyl)-1H-imidazol-2-yl)benzyl)-6,7-dihydropyrazolo[1,5-α]pyrimidin-5(4H)-one] | 100 to 500
27 | COc1ncnc(C2CC2)c1-c1cc2n(n1)CCC(=O)N2Cc1ccc(-c2nc(C(F)(F)F)cn2CCF)cc1 [Example 81] | < 100
28 | CCn1nc(C(F)(F)F)nc1-c1ccc(CN2C(=O)CCn3nc(-c4c(OC)ncnc4C4CC4)cc32)cc1 [Example 87] | > 500
29 | COc1cc(C(F)(F)F)nn1-c1ccc(CN2C(=O)CCn3nc(-c4c(Cl)cnn4C(C)C)cc32)cn1 [Example 89] | < 100
30 | COc1ncnc(C2CC2)c1-c1cc2n(n1)CCC(=O)N2Cc1ccc(-c2nn(C)cc2C)cc1 [Example 90] | > 500
31 | Cc1cc(C(F)(F)F)n(-c2ccc(CN3C(=O)CCn4nc(-c5c(Cl)cnn5C(C)C)cc43)cc2F)n1 [Example 92] | > 500
32 | COCc1cc(C(F)(F)F)nn1-c1ccc(CN2C(=O)CCn3nc(-c4c(OC)ncnc4C4CC4)cc32)cc1 [Example 99] | 100 to 500
33 | CC(C)n1ncc(Cl)c1-c1cc2n(n1)CCC(=O)N2Cc1ccc(-c2nc(C(F)(F)F)n(C)n2)cc1 [Example 101] | 100 to 500
34 | CCn1cc(C(F)(F)F)nc1-c1ccc(CN2C(=O)CCn3nc(-c4c(OC)ncnc4C4CC4)cc32)cn1 [Example 105] | 100 to 500
35 | COc1ncnc(C2CC2)c1-c1cc2n(n1)CCC(=O)N2Cc1ccc(-n2nc(C#N)cc2OC)cc1 [Example 107] | 100 to 500
36 | CC(c1ccc(F)cc1)N1C(=O)CCn2nc(-c3c(Cl)cnn3C(C)C)cc21 (stereo not drawn) [Example 110] | 100 to 500
37 | CCn1cc(C(F)(F)F)nc1-c1cc2c(cc1F)C(N1C(=O)CCn3nc(-c4c(Cl)cnn4C(C)C)cc31)CC2 (stereo not drawn) [Example 121] | 100 to 500
38 | CCn1cc(C)nc1-c1ccc(CN2C(=O)CCn3nc(-c4c(Cl)cnn4C(C)C)cc32)cc1 [Example 134] | 100 to 500
39 | CCn1cc(C(F)(F)F)nc1-c1ccc(CN2C(=O)CCn3nc(-c4c(OC)ncnc4C4CC4)cc32)cc1OC [Example 136] | 100 to 500
40 | COc1ncnc(C2(C)CC2)c1-c1cc2n(n1)CCC(=O)N2Cc1ccc(-c2nc(C(F)(F)F)cn2C)c(F)c1 [Example 149, 4-(3-fluoro-4-(1-methyl-4-(trifluoromethyl)-1H-imidazol-2-yl)benzyl)-2-(4-methoxy-6-(1-methylcyclopropyl)pyrimidin-5-yl)-6,7-dihydropyrazolo[1,5-α]pyrimidin-5(4H)-one] | 100 to 500
41 | CCn1cc(C(F)(F)F)nc1-c1ccc(CN2C(=O)CCn3nc(-c4c(Cl)cnn4C4CCOC4)cc32)cc1 (stereo not drawn) [Example 150] | 100 to 500
42 | COc1cnn(C(C)C)c1-c1cc2n(n1)CCC(=O)N2Cc1ccc(-c2nc(C(F)(F)F)cn2C(C)C)cc1 [Example 152] | 100 to 500
43 | CCn1cc(C(F)(F)F)nc1-c1ccc(CN2C(=O)CCn3nc(-c4c(C(C)(C)C)cnn4C)cc32)cc1 [Example 157] | 100 to 500
44 | CCn1cc(C(F)(F)F)nc1-c1ccc(CN2C(=O)CCn3nc(-c4c(C(C)C)cnn4C)cc32)cc1 [Example 158] | > 500
45 | CCn1cc(C(F)(F)F)nc1-c1ccc(CN2C(=O)CCn3nc(-c4c(C5CC5)cnn4C(C)C)cc32)cc1 [Example 161] | 100 to 500
46 | CCn1cc(C(F)(F)F)nc1-c1ccc(CN2C(=O)CCn3nc(-c4c(Cl)cnn4CCO)cc32)cc1F [Example 163] | 100 to 500
47 | CCn1cc(C(F)(F)F)nc1-c1ccc(CN2C(=O)CCn3nc(-c4c(OC)ncnc4C4CC4)nc32)cc1OC [Example 185] | 100 to 500
48 | CCn1cc(C(F)(F)F)nc1-c1ccc(CN2C(=O)CCn3nc(-c4c(OC)ncnc4C4CC4)nc32)cc1OC(F)F [Example 192] | 100 to 500
